Measurements reported in publication PMC5761851, “Application of a phenotypic drug discovery strategy to identify biological and chemical starting points for inhibition of TSLP production in lung epithelial cells” (PLoS ONE, 2018).

What was measured:
Assay in all cases: kinase selectivity panel
Assay type in all cases: biochemical
Fgr = target: T1, Fgr (Homo sapiens, UniProt P09769); conditions: read-out: percentage of control activity (POC), Fgr
T1 construct: purchased Eurofins Pharma Discovery Services (KinaseProfiler; Cerep BioPrint panel)
T1 sequence (P09769 whole entry): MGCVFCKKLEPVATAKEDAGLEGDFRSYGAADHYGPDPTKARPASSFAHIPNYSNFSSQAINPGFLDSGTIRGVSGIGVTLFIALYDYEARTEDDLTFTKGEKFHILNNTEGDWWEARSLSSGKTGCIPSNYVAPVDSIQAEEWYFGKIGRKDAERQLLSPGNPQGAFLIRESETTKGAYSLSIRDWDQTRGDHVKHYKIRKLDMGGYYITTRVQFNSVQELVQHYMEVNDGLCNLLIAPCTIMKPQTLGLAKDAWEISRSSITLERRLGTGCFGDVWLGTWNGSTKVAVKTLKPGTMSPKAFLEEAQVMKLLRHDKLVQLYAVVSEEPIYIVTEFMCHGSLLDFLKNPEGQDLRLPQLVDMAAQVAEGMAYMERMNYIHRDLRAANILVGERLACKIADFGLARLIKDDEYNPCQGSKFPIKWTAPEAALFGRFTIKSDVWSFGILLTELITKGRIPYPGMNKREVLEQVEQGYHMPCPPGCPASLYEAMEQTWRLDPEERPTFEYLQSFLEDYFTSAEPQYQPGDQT
Method in brief: (§1)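 Tested at 10 μM in duplicate within a panel of 125 representative kinases. For selected activities, IC50 values were then determined from 9 concentrations, each run in duplicate.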

p70S6K = target: T2, p70S6K (Homo sapiens, UniProt P23443); conditions: read-out: percentage of control activity (POC), p70S6K
T2 construct: purchased Eurofins Pharma Discovery Services (KinaseProfiler; Cerep BioPrint panel)
T2 sequence (P23443 whole entry): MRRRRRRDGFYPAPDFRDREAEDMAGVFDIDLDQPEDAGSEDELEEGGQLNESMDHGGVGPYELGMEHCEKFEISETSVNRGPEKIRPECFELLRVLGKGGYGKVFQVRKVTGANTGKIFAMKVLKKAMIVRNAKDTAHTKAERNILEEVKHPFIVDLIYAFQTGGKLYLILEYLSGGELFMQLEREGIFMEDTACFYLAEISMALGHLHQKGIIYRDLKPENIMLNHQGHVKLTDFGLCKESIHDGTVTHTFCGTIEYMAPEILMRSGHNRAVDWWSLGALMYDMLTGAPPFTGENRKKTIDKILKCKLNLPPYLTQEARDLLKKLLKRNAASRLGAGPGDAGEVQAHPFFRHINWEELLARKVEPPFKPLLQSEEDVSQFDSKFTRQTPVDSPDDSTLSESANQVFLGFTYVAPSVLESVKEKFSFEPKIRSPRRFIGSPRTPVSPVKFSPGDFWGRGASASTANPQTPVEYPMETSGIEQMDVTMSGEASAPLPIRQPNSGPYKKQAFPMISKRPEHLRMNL
Method in brief: as §1

EGFR = target: T3, EGFR (Homo sapiens, UniProt P00533); conditions: read-out: percentage of control activity (POC), EGFR
T3 construct: purchased Eurofins Pharma Discovery Services (KinaseProfiler; Cerep BioPrint panel)
T3 sequence (P00533 25-1210): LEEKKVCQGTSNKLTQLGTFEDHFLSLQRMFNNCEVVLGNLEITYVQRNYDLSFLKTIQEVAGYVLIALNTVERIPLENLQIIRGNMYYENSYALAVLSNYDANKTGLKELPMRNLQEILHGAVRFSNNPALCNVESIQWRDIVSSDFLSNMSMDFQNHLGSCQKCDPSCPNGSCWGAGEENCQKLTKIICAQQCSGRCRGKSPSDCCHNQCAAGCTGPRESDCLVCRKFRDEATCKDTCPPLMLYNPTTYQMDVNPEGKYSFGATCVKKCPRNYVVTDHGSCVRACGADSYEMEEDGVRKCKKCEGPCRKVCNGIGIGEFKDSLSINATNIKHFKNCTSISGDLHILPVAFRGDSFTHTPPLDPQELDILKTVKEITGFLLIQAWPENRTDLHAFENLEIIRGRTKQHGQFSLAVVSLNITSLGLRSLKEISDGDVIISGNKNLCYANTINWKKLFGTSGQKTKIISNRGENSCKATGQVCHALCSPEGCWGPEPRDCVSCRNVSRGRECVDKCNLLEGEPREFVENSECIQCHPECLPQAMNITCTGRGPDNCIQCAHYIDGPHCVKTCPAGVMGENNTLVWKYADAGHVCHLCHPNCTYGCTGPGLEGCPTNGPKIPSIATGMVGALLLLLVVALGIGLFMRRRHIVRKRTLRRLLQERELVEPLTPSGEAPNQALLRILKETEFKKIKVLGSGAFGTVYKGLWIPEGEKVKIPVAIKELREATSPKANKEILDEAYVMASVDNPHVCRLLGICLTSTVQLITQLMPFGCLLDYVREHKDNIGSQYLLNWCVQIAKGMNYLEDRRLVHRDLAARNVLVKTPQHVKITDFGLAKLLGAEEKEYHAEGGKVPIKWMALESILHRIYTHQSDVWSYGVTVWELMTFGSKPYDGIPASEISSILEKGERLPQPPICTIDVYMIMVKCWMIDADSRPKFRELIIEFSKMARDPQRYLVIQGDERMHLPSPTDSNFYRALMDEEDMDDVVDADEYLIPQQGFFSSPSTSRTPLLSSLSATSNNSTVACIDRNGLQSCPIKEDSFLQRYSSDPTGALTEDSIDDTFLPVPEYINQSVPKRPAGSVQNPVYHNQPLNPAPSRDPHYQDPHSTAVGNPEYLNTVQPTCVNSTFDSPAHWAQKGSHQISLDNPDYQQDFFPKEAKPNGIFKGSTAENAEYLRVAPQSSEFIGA
Method in brief: as §1

Mer = target: T4, Mer (Homo sapiens, UniProt Q12866); conditions: read-out: percentage of control activity (POC), Mer
T4 construct: purchased Eurofins Pharma Discovery Services (KinaseProfiler; Cerep BioPrint panel)
T4 sequence (Q12866 21-999): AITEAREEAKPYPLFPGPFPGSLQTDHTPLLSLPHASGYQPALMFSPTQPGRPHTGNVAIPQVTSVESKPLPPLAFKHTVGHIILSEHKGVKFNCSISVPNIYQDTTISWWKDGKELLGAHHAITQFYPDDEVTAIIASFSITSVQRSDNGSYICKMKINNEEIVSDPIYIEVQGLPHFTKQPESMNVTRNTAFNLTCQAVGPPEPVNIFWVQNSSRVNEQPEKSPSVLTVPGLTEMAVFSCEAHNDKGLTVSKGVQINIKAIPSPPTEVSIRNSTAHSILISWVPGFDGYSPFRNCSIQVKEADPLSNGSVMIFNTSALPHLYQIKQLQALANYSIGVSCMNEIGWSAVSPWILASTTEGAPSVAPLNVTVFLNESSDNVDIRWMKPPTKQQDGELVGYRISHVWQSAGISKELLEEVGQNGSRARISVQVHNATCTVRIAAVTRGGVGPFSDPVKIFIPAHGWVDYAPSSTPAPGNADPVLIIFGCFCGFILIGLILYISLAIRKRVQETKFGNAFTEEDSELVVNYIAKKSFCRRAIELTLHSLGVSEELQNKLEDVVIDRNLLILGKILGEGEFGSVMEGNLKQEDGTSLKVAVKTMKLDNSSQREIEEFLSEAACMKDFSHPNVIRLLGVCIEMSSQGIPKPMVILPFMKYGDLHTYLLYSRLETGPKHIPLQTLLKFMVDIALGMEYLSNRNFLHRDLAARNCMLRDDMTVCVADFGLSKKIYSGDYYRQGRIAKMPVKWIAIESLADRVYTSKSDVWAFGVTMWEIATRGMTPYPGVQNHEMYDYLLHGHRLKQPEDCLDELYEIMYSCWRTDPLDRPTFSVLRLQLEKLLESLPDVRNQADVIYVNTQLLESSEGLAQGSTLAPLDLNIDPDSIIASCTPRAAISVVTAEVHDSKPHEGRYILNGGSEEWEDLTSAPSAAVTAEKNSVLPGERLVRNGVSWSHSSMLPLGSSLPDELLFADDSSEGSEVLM
Method in brief: as §1

FAK = target: T5, FAK (Homo sapiens, UniProt Q05397); conditions: read-out: percentage of control activity (POC), FAK
T5 construct: purchased Eurofins Pharma Discovery Services (KinaseProfiler; Cerep BioPrint panel)
T5 sequence (Q05397 whole entry): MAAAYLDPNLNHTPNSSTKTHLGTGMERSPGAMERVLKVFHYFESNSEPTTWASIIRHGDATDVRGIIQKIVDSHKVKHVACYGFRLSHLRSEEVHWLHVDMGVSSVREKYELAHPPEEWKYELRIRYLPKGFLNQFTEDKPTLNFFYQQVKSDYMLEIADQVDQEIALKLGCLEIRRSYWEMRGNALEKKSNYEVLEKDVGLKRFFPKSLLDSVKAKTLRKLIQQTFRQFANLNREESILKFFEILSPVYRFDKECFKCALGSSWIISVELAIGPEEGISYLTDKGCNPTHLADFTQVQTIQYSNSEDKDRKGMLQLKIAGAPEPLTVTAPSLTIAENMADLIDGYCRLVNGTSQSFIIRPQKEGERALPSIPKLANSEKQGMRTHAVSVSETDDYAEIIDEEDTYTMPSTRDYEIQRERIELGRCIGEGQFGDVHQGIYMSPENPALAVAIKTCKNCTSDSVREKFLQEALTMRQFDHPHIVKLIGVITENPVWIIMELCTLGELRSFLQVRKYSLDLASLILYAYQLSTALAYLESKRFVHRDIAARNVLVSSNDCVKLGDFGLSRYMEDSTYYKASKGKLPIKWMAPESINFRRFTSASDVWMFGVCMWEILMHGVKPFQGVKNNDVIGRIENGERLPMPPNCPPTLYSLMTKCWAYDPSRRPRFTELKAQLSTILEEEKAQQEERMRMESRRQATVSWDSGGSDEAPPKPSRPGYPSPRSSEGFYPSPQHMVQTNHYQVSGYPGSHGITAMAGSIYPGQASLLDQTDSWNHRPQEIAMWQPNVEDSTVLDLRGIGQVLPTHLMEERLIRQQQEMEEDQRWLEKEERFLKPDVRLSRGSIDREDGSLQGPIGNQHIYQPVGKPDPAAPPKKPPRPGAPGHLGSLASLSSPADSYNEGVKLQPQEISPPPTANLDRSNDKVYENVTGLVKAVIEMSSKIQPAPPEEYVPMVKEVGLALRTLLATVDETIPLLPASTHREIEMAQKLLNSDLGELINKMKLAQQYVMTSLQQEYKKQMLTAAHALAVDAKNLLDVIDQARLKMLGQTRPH
Method in brief: as §1

EphB4 = target: T6, EphB4 (Homo sapiens, UniProt P54760); conditions: read-out: percentage of control activity (POC), EphB4
T6 construct: purchased Eurofins Pharma Discovery Services (KinaseProfiler; Cerep BioPrint panel)
T6 sequence (P54760 16-987): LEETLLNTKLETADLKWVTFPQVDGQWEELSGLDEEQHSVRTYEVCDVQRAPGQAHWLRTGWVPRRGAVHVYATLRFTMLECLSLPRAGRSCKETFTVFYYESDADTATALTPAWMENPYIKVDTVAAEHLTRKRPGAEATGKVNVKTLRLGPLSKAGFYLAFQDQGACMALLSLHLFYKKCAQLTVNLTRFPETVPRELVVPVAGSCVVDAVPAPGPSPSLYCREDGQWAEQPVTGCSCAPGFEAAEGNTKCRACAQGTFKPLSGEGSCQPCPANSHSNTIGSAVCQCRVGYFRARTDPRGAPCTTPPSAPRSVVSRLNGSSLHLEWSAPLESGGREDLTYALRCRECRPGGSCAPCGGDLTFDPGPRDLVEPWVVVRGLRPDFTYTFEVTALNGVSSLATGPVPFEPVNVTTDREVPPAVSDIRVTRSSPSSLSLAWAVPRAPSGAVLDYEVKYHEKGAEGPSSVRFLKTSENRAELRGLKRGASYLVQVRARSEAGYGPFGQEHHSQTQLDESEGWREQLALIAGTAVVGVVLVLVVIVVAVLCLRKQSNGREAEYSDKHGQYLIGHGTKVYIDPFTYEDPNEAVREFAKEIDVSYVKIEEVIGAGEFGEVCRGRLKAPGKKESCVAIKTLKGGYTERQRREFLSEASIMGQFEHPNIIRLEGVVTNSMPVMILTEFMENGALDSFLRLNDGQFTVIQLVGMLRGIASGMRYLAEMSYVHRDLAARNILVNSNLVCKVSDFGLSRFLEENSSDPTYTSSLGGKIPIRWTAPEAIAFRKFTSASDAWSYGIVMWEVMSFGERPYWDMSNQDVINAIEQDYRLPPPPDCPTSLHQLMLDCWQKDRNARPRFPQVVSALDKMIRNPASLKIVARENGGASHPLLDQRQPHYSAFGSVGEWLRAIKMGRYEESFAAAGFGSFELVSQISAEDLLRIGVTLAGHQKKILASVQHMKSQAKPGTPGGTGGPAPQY
Method in brief: as §1

CaMKIIγ = target: T7, CaMKIIγ (Homo sapiens, UniProt Q13555); conditions: read-out: percentage of control activity (POC), CaMKIIγ
T7 construct: purchased Eurofins Pharma Discovery Services (KinaseProfiler; Cerep BioPrint panel)
T7 sequence (Q13555 whole entry): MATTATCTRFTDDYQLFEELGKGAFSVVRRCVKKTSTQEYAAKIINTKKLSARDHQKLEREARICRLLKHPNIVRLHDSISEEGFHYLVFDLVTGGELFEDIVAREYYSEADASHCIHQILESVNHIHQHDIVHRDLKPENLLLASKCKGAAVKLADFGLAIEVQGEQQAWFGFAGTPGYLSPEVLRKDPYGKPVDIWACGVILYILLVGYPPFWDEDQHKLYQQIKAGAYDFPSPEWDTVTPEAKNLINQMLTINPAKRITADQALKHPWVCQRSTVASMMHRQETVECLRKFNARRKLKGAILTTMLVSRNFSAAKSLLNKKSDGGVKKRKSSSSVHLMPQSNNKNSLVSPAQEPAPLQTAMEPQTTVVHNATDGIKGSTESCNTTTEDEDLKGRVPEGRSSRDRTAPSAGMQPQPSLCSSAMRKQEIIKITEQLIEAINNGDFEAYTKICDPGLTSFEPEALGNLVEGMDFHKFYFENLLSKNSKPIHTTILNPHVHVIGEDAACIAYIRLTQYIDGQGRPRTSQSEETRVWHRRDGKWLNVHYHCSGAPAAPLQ
Method in brief: as §1

Row | Structure (SMILES) | remaining activity at 10 µM (Fgr) [%] | remaining activity at 10 µM (p70S6K) [%] | remaining activity at 10 µM (EGFR) [%] | remaining activity at 10 µM (Mer) [%] | remaining activity at 10 µM (FAK) [%] | remaining activity at 10 µM (EphB4) [%] | remaining activity at 10 µM (CaMKIIγ) [%]
1 | CC(C)(C)N1CCC(c2cc(-c3ccc(F)cc3Cl)c3cc[n+]([O-])c(-c4c(Cl)cccc4Cl)c3n2)CC1 [compound 2] | 99 | 104 | 96 | 95 | 111 | 91 | 91
2 | Cc1ccc(C(=O)NCC2CC2)cc1-c1ccc2c(c1)NC(=O)C21CCCC1 [compound 3] | 93 | 95 | 91 | 96 | 99 | 105 | 103
3 | Cn1cc(-c2cccc(-c3nc(C(=O)NC4C5CC6CC4CC(O)(C6)C5)c(N)nc3N)c2)cn1 (centres unmarked) [compound 4] | 67 | 92 | 95 | 74 | 99 | 99 | 83
4 | CS(=O)(=O)N1CCN(c2ccc(Nc3ncc(C(N)=O)c(NC4CC4)n3)cc2)CC1 [compound 5] | 5 | 54 | 87 | 1 | 1 | 36 | 24
5 | COc1c(NC(=O)c2ccc(C)c(-c3nnc4c(NCC(C)(C)C)nccn34)c2)cc(C(C)(C)C)cc1NS(C)(=O)=O [compound 7, reference compound] | 98 | 102 | 104 | 100 | 104 | 92 | 102
